Values joined by “and” are separate entries in the source; they are usually repeats but may differ in a detail not shown here. Equal values may be shown once.
Legend:
serum CK = assay: Serum CK levels, Phase 2 DMD study; type: in vivo, human; settings: majority of subjects at 4-, 8-, 10-, 20-, 40-mg/kg dose levels (p=0.03, 0.002, 0.001)
Procedure: Serum CK activity is assessed using a commercially available NADH-linked kinetic assay (Diagnostic Chemicals Ltd., Oxford, Conn.). Serum CK levels are measured prior to treatment, on day 1 (prior to first dose), day 7, day 14, day 21, and day 27 during the treatment period, and on day 42 and day 56 after treatment. Serum CK is increased in Duchenne muscular dystrophy and therefore is a readily measurable diagnostic marker for the disease and may serve as a potential biomarker for the pharmacological activity of the drug (Mendell et al., 1989, New Eng. J. Med. 320(24):1592-1597).
Pre-treatment of primary muscle cells from 24 of the 26 boys in the first 2 cohorts were available for in vitro myotube culture. […] These changes were statistically significant (p=0.03, p=0.002, p=0.001 for low-, middle- and high doses, respectively). The return of mean values toward baseline upon cessation of treatment provided additional support for pharmacological activity.

dystrophin = assay: Dystrophin expression in EDB muscle biopsy by immunofluorescence, Phase 2 DMD study; type: in vivo, human; settings: for In Vivo Expression Response (dystrophin): individual DMD patients, 28 days
Procedure: Biopsy of the EDB muscle and overlying skin from one foot is performed under local anesthesia and conscious sedation (in some cases, general anesthesia may be required) prior to treatment, and from the other foot on the last day of treatment. The biopsy procedure is performed using standardized techniques (Stedman, 2000, Human Gene Therapy 11:777-90). The entire muscle belly (whenever possible) is removed in the procedure. At the time of collection of the biopsy prior to treatment, the muscle specimen is divided into at least 3 fragments and the biopsy specimen collected on the last day of treatment is divided into at least 2 fragments. The biopsy specimen is placed on a telfa gauze sponge moistened with Ringer's saline. The biopsy specimen is viewed at low power under a stereo dissection microscope to establish fiber orientation. The muscle is then transected using a sharp scalpel in a cross sectional fashion (perpendicular to the orientation of the fibers) whenever possible and allowed to rest for 2 minutes to allow for the cessation of spasm. The sample is then frozen in liquid nitrogen cooled isopentane, transferred to a liquid nitrogen reservoir and held 1 inch above the liquid/vapor interface for 2 minutes of slow cooling and isopentane evaporation before immersion in the liquid nitrogen, and wrapped into precooled (in liquid nitrogen and stored on dry ice) foil labeled with the study number, site number, patient number, date, patient initials, and foot side (right foot or left foot).
All sample containers are clearly labeled in a fashion that identifies the subject and the collection date. Labels are fixed to the sample containers in a manner that prevents the label from becoming detached. Samples are shipped for analysis/culture/central review immediately after the procedure is performed. For detection of dystrophin, 3 commercially available antibodies that recognize the C-terminus, the N-terminus, and the rod domain of the protein are employed. For detection of the sarcoglycan and dystroglycan complex, commercially available antibodies against α-, β-, γ-, and δ-sarcoglycan, and β-dystroglycan are used when possible. Epifluorescence microscopy is used in the analysis; images are captured by CCD camera, after normalization of the fluorescence intensity against a normal muscle specimen. Images are stored digitally and preserved for future review, and final evaluation at the completion of the study. Tissues are also processed for detection of dystrophin, the sarcoglycans, and β-dystroglycan by Western blotting using the same antibodies. Microscopic images are captured and preserved for future review, and for final evaluation at the completion of the study. Remaining muscle tissue samples are preserved for confirmatory assays of mRNA and proteins involved in DMD. […]

O=C(O)c1cccc(-c2noc(-c3ccccc3F)n2)c1 [3-[5-(2-fluoro-phenyl)-[1,2,4]oxadiazol-3-yl]-benzoic acid]
Serum CK, end-of-treatment versus pretreatment values (serum CK): decreases in CK | In Vivo Expression Response (dystrophin) (dystrophin; High Dose: 20, 20, 40 mg/kg): Yes (6×) and No (6×) | In Vivo Expression Response (dystrophin) (dystrophin; Low Dose: 4, 4, 8 mg/kg): Yes (4×) and No (2×) | In Vivo Expression Response (dystrophin) (dystrophin; Middle Dose: 10, 10, 20 mg/kg): Yes (10×) and No (10×) | Extensor digitorum brevis muscle membrane dystrophin on staining for the C-terminal domain (dystrophin; some patients at both dose levels, day 28 relative to baseline): Partial restoration or increase

Reference: US9226919B2, “Methods for dosing an orally active 1,2,4-oxadiazole” (PTC Therapeutics, Inc., priority 2006, dated 2016)
